One assay concerns HCC827/ER cells. Briefly: Cell viability assay (CellTiter-Glo 2.0), erlotinib-resistant HCC827/ER cells. Format: cell-based, human. As to conditions: Homo sapiens, HCC827ER, read-out: Relative cell viability. The source says:
(§1) To explore c-MET and AXL mechanisms of EGFR TKI resistance, resistant cells of the EGFR TKI hypersensitive EGFR exon 19 mutant NSCLC cell line, HCC827 and PC9 were generated by exposing these cells to increasing concentrations of EGFR TKI for over 3 months.
(§2) Gefitinib-resistant cells were referred to as HCC827/GR. […] Osimertinib-resistant cells were referred to as HCC827/OR.
On the technique in general: Cellular ATP, detected with luciferase, serves as a proxy for viable cell number.

The subject of a further assay is PC9/ER cells. The assay is described as follows: Cell viability assay (CellTiter-Glo 2.0), erlotinib-resistant PC9/ER cells. The note with it: Homo sapiens, PC-9/ER, 72 h drug treatment, read-out: Relative cell viability, IC50 PC9ER. Format: cell-based.
Excerpt: as §1, §2

A further assay relates to HCC827/GR cells. The assay is described as follows: Cell viability assay (CellTiter-Glo 2.0), gefitinib-resistant HCC827/GR cells. The note with it: Homo sapiens, HCC827, 72 h drug treatment, read-out: Relative cell viability, IC50 HCC827GR. Format: cell-based, human.
Excerpt: as §1
The human cell line HCC827 was purchased from the American Type Culture Collection (Manassas, VA), and the PC9 cell line was obtained from RIKEN Cell Bank (Ibaraki, Japan). […] Gefitinib-resistant cells were referred to as HCC827/GR. […] Osimertinib-resistant cells were referred to as HCC827/OR.
(§3) Cell viability assays were carried out by plating 1,000 cells per well of HCC827 or PC9 resistant cells, respectively, into white transparent-bottom 384-well plates. The cells were treated with each TKI across a 10-dose range from 1 nM to 10,000 nM. After 72 h of drug treatment, cell viability was measured using the CellTiter-Glo 2.0 assay (Promega, Madison, WI).
as §3

The test system of the next assay is HCC827/OR cells. Briefly: Cell viability assay (CellTiter-Glo 2.0), osimertinib-resistant HCC827/OR cells. The note with it: Homo sapiens, HCC827, 72 h drug treatment, read-out: Relative cell viability, IC50 HCC827OR. Format: cell-based, human.
Excerpt: as §1, §2

[1] abbreviates: Table 4, 72 h drug treatment, combinations of EGFR TKIs and inhibitor of Formula (I).
Setting [2] is: Table 4, combinations of EGFR TKIs and inhibitor of Formula (I).
Setting [3] is: Table 2, 72 h drug treatment, EGFR TKI resistant cells, combination with EGFR TKI.
Where [4] appears, read: Table 2, EGFR TKI resistant cells, combination with EGFR TKI.

Like-named read-outs stand apart in the source and are kept apart here.

With `C=CCn1cc(C(=O)Nc2ccc(Oc3ccnc(N)c3C#CCN3CCOCC3)c(F)c2)c(=O)n(CC=C)c1=O` [Example 67, 1,3-diallyl-N-(4-(2-amino-3-(3-morpholinoprop-1-ynyl)pyridin-4-yloxy)-3-fluorophenyl)-2,4-dioxo-1,2,3,4-tetrahydropyrimidine-5-carboxamide], the IC50 in the assay with HCC827/ER cells (setting [1]) is < 100 nM; in the assay on PC9/ER cells (setting [2]) it was < 1000 nM; with HCC827/GR cells (setting [2]), < 100 nM; in the assay on HCC827/OR cells (setting [2]), < 1000 nM.

On to `COCCN1CCN(C(=O)C#Cc2c(Oc3ccc(NC(=O)c4cn(C(C)C)c(=O)n(-c5ccc(F)cc5)c4=O)cc3F)ccnc2N)CC1` [Example 2, N-(4-(2-amino-3-(3-(4-(2-methoxyethyl)piperazin-1-yl)-3-oxoprop-1-ynyl)pyridin-4-yloxy)-3-fluorophenyl)-3-(4-fluorophenyl)-1-isopropyl-2,4-dioxo-1,2,3,4-teterahydropyrimidine-5-carboxamide], for which the IC50 with HCC827/ER cells (setting [3]), with PC9/ER cells (setting [4]), in the assay on HCC827/GR cells (setting [4]) and in the assay on HCC827/OR cells (setting [4]) was < 10 nM each time.

Regarding `Nc1nccc(Oc2ccc(NC(=O)c3cn(C4CCOCC4)c(=O)n(-c4ccc(F)cc4)c3=O)cc2F)c1C#CCC1CCNCC1` [Example 59, N-(4-(2-amino-3-(3-(piperidin-4-yl)prop-1-ynyl)pyridin-4-yloxy)-3-fluorophenyl)-3-(4-fluorophenyl)-2,4-dioxo-1-(tetrahydro-2H-pyran-4-yl)-1,2,3,4-tetrahydropyrimidine-5-carboxamide], the IC50 with HCC827/ER cells (setting [1]), in the assay with PC9/ER cells (setting [2]), in the assay with HCC827/GR cells (setting [2]) and in the assay with HCC827/OR cells (setting [2]) was < 1000 nM each time.

Regarding `CC(C)n1cc(C(=O)Nc2ccc(Oc3ccnc(N)c3C#Cc3ccccn3)c(F)c2)c(=O)n(-c2ccc(F)cc2)c1=O` [Example 9, N-(4-(2-amino-3-(pyridin-2-ylethnyl)pyridin-4-yloxy)-3-fluorophenyl)-3-(4-fluorophenyl)-1-isopropyl-2,4-dioxo-1,2,3,4-tetrahydropyrimidine-5-carboxamide], the IC50 is < 100 nM in the assay with HCC827/ER cells (setting [3]), > 10000 nM with PC9/ER cells (setting [4]), < 100 nM in the assay on HCC827/GR cells (setting [4]) and < 100 nM in the assay on HCC827/OR cells (setting [4]).

In the case of `CC(C)n1cc(C(=O)Nc2ccc(Oc3ccnc(N)c3-c3ccc(Oc4ccccc4)cc3)c(F)c2)c(=O)n(-c2ccc(F)cc2)c1=O` [Example 10], the IC50 in the assay on HCC827/ER cells (setting [3]) was < 1000 nM; with PC9/ER cells (setting [4]), < 100 nM; in the assay with HCC827/GR cells (setting [4]) it was < 1000 nM; in the assay on HCC827/OR cells (setting [4]), < 1000 nM.

With `Cn1nc(C(=O)Nc2ccc(Oc3ccnc(N)c3C#CCN3CCOCC3)c(F)c2)c(=O)n(-c2ccc(F)cc2)c1=O` [Example 49, N-(4-(2-amino-3-(3-morpholinoprop-1-ynyl)pyridin-4-yloxy)-3-fluorophenyl)-4-(4-fluorophenyl)-2-methyl-3,5-dioxo-2,3,4,5-tetrahydro-1,2,4-triazine-6-carboxamide], the IC50 with HCC827/ER cells (setting [1]) was < 10000 nM; in the assay with PC9/ER cells (setting [2]) it was < 1000 nM; with HCC827/GR cells (setting [2]), < 1000 nM; in the assay with HCC827/OR cells (setting [2]) it was < 10000 nM.

Consider `C=CCn1cc(C(=O)Nc2ccc(Oc3ccnc(N)c3C#CC(C)(C)N3CCOCC3)c(F)c2)c(=O)n(CC=C)c1=O` [Example 70, 1,3-diallyl-N-(4-(2-amino-3-(3-methyl-3-morpholinobut-1-ynyl)pyridin-4-yloxy)-3-fluorophenyl)-2,4-dioxo-1,2,3,4-tetrahydropyrimidine-5-carboxamide], for which the IC50 was < 1000 nM in the assay on HCC827/ER cells (setting [1]), < 10000 nM in the assay on PC9/ER cells (setting [2]), < 1000 nM in the assay with HCC827/GR cells (setting [2]) and < 1000 nM with HCC827/OR cells (setting [2]).

On to `CC(C)n1cc(C(=O)Nc2ccc(Oc3ccnc(N)c3C#CCN3CCN(C)CC3)c(F)c2)c(=O)n(-c2ccc(F)cc2)c1=O` [Example 26, N-(4-(2-amino-3-(3-(4-methylpiperazin-1-yl)prop-1-ynyl)pyridine-4-yloxy)-3-fluorophenyl)-3-(4-fluorophenyl)-1-isopropyl-2,4-dioxo-1,2,3,4-tetrahydropyrimidine-5-carboxamide], for which the IC50 with HCC827/ER cells (setting [3]) was < 10 nM; in the assay on PC9/ER cells (setting [4]), < 1000 nM; in the assay with HCC827/GR cells (setting [4]) it was < 100 nM; in the assay on HCC827/OR cells (setting [4]) it was < 10 nM.

Regarding `CC(C)(C#Cc1c(Oc2ccc(NC(=O)c3cn(C4CCOCC4)c(=O)n(-c4ccc(F)cc4)c3=O)cc2F)ccnc1N)N1CCOCC1` [Example 55, N-(4-(2-amino-3-(3-methyl-3-morpholinobut-1-ynyl)pyridin-4-yloxy)-3-fluorophenyl)-3-(4-fluorophenyl)-2,4-dioxo-1-(tetrahydro-2H-pyran-4-yl)-1,2,3,4-tetrahydropyrimidine-5-carboxamide], the IC50 in the assay with HCC827/ER cells (setting [1]) was < 100 nM; in the assay on PC9/ER cells (setting [2]) it was < 1000 nM; with HCC827/GR cells (setting [2]), < 100 nM; in the assay with HCC827/OR cells (setting [2]) it was < 1000 nM.

For the compound `CC(C)n1cc(C(=O)Nc2ccc(Oc3ccnc(N)c3C#CCC3CCNCC3)c(F)c2)c(=O)n(-c2ccc(F)cc2)c1=O` [Example 27, N-(4-(2-amino-3-(3-(piperidin-4-yl)prop-1-ynyl)pyridin-4-yloxy)-3-fluorophenyl)-3-(4-fluorophenyl)-1-isopropyl-2,4-dioxo-1,2,3,4-tetrahydropyrimidine-5-carboxamide], the IC50 with HCC827/ER cells (setting [3]), in the assay on PC9/ER cells (setting [4]), in the assay on HCC827/GR cells (setting [4]) and with HCC827/OR cells (setting [4]) was < 10 nM throughout.

As for `COCCN1CCN(CC#Cc2c(Oc3ccc(NC(=O)c4cn(C(C)C)c(=O)n(-c5ccc(F)cc5)c4=O)cc3F)ccnc2N)CC1` [Example 18, N-(4-(2-amino-3-(3-(4-(2-methoxyethyl)piperazin-1-yl)prop-1-ylny)pyridin-4-yloxy)-3-fluorophenyl)-3-(4-fluorophenyl)-1-isopropyl-2,4-dioxo-1,2,3,4-tetrahydropyrimidine-5-carboxamide], the IC50 with HCC827/ER cells (setting [3]) was < 10 nM; in the assay on PC9/ER cells (setting [4]), < 100 nM; in the assay with HCC827/GR cells (setting [4]), < 100 nM; with HCC827/OR cells (setting [4]), < 10 nM.

As for `Cn1nc(C(=O)Nc2ccc(Oc3ccnc(N)c3C#CC(C)(C)N3CCNCC3)c(F)c2)c(=O)n(-c2ccc(F)cc2)c1=O` [Example 47, N-(4-(2-amino-3-(3-methyl-3-(piperazin-1-yl)but-1-ynyl)pyridin-4-yloxy)-3-fluorophenyl)-4-(4-fluorophenyl)-2-methyl-3,5-dioxo-2,3,4,5-tetrahydro-1,2,4-triazine-6-carboxamide], the IC50 with HCC827/ER cells (setting [1]), in the assay on PC9/ER cells (setting [2]), in the assay on HCC827/GR cells (setting [2]) and in the assay on HCC827/OR cells (setting [2]) was < 10000 nM throughout.

Regarding `Nc1nccc(Oc2ccc(NC(=O)c3c[nH]c(=O)n(-c4ccc(F)cc4)c3=O)cc2F)c1C#CCN1CCOCC1` [Example 51, N-(4-(2-amino-3-(3-morpholinoprop-1-ynyl)pyridin-4-yloxy)-3-fluorophenyl)-3-(4-fluorophenyl)-2,4-dioxo-1,2,3,4-tetrahydropyrimidine-5-carboxamide], the IC50 in the assay with HCC827/ER cells (setting [1]) is < 1000 nM; in the assay on PC9/ER cells (setting [2]) it was < 1000 nM; in the assay on HCC827/GR cells (setting [2]), < 10000 nM; in the assay with HCC827/OR cells (setting [2]), < 1000 nM.

On to `CC(C)n1cc(C(=O)Nc2ccc(Oc3ccnc(N)c3C#CC3CCNCC3)c(F)c2)c(=O)n(-c2ccc(F)cc2)c1=O` [Example 15, N-(4-(2-amino-3-(piperidin-4-ylethynyl)pyridin-4-yloxy)-3-fluorophenyl)-3-(4-fluorophenyl)-1-isopropyl-2,4-dioxo-1,2,3,4-tetrahydropyrimidine-5-carboxamide], for which the IC50 in the assay on HCC827/ER cells (setting [3]) was < 100 nM; with PC9/ER cells (setting [4]) it was < 10 nM; in the assay on HCC827/GR cells (setting [4]), < 100 nM; with HCC827/OR cells (setting [4]), < 10 nM.

With `Cc1nc(Cn2cc(C(=O)Nc3ccc(Oc4ccnc(N)c4C#CC(C)(C)N4CCN(C)CC4)c(F)c3)c(=O)n(-c3ccc(F)cc3)c2=O)cs1` [Example 42, N-(4-((2-amino-3-(3-methyl-3-(4-methylpiperazin-1-yl)but-1-yn-1-yl)pyridin-4-yl)oxy)-3-fluorophenyl)-3-(4-fluorophenyl)-1-((2-methylthiazol-4-yl)methyl)-2,4-dioxo-1,2,3,4-tetrahydropyrimidine-5-carboxamide], the IC50 was < 100 nM in the assay with HCC827/ER cells (setting [1]), < 1000 nM in the assay on PC9/ER cells (setting [2]), < 100 nM in the assay with HCC827/GR cells (setting [2]) and < 1000 nM in the assay with HCC827/OR cells (setting [2]).

The values above are taken from patent US12421207B2 (CMG Pharmaceutical Co., Ltd., priority 2022, dated 2025).
